Assay results as given in patent US12678477B2, “Antiviral peptoid compositions” (priority 2019, dated 2026).
Where “and” joins values, the source holds several entries; their conditions need not be identical. Identical values can stand only once.

Columns and labels:
HSV = conditions: acyclovir treatment, given orally; cited from earlier work
[1] = tested on: SARS-CoV-2 Isolate USA-WA1/2020; test: SARS-CoV-2 plaque assay in Vero E6 cells (virus pre-incubated with peptoid); type: cell-based; conditions: for % control: plaque count relative to control; for Count (plaques): virus-peptoid incubated two hours at 37° C., Vero E6

Molecule	reduction of transmission (HSV) [%]	% control ([1]; 5 μg/ml)	Count (plaques) ([1]; 5 μg/ml)	% control ([1]; 10 μg/ml)	Count (plaques) ([1]; 10 μg/ml)	% control ([1]; 20 μg/ml)	Count (plaques) ([1]; 20 μg/ml)	% control ([1]; 40 μg/ml) [%]	Count (plaques) ([1]; 40 μg/ml)
Nc1nc2c(ncn2COCCO)c(=O)[nH]1 [acyclovir]	50	–	–	–	–	–	–	–	–
H-((NLys-Nspe(p-Br)-Nspe(p-Br))2—NH2 [MXB-004]	–	86.36% and 102.27%	38 and 45	136.36% and 134.09%	60 and 59	54.55% and 56.82%	24 and 25	15.91	7
H-(NLys-Nspe-Nspe)4-NH2 [MXB-001]	–	118.18% and 113.64%	52 and 50	100% and 118.18%	44 and 52	125%	55	104.55	46
